# Laboratory results from BindingDB's records for patent US11111270 (Sanford Burnham Prebys Medical Discovery Institute, 2021).
# Target: T1, E3 ubiquitin-protein ligase XIAP [163-230]/[26-93] (Homo sapiens, UniProt P98170+P98170)
# T1 construct: 163-230; 26-93
# Assay: Biological Assay
# Experimental: 5000 PPC-1 cells were plated and grown overnight. Compounds were plated and 4 hrs later, TRAIL was added to half of the plate while RPMI was added to the other half of the plate as a control. Plates were return to the incubator for 24 hrs. Plates were removed from the incubator and placed on the bench for 30 min and then 25 uL of Cell Titer Glo were added per well. Plates were placed on a rocker and then read on a luminometer. 5000 MDA-MB-231 cells were plated per well. Compound was added and 4 hrs later, TRAIL was added at 5 ng/mL; RPMI was added for a minus TRAIL control. Plates were incubated an additional 24 hrs, removed to the bench for 30 min, and then 25 uL of cell titer glo was added per well. Plates were placed on a rocker and read on a luminometer. Data were fit using PRISM.
# T1 sequence (P98170 26-93): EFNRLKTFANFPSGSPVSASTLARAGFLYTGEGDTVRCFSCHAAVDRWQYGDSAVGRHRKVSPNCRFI
# T1 sequence (P98170 163-230): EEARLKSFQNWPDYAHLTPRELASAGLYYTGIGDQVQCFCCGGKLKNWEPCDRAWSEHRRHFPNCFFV
smiles,measurement,value
"CN[C@@H](C)C(=O)N[C@H]1CCCNC2CCC(C(=O)N[C@@H]3CCCc4ccccc43)N2C1=O (stereo partly specified) [US11111270, Compound 16]",Ki,in the range around 37.5 µM
